In ChEMBL document CHEMBL1208792, “A novel series of [3.2.1] azabicyclic biaryl ethers as alpha3beta4 and alpha6/4beta4 nicotinic receptor agonists” (Bioorg Med Chem Lett, 2010):

What was measured:
[1] = target: Neuronal acetylcholine receptor; alpha4/beta2 (Homo sapiens, UniProt P17787+P43681); assay: Displacement of [3H]epibatidine from alpha4beta2 nicotinic receptor expressed in human HEK293 cells; type: cell-based
[2] = target: Acetylcholine receptor; alpha1/beta1/delta/gamma (Homo sapiens, UniProt P02708+P07510+P11230+Q07001); assay: Binding affinity to alpha-1-beta-gamma-delta nicotinic receptor; type: protein-complex assay
[3] = target: T1, Neuronal acetylcholine receptor; alpha3/beta4 (Homo sapiens, UniProt P30926+P32297); assay: Displacement of [3H]epibatidine from alpha3beta4 nicotinic receptor expressed in human HEK293 cells; type: cell-based
[4] = Displacement of [3H]epibatidine from alpha6/4beta4 nicotinic receptor expressed in human HEK293 cells; type: cell-based
[5] = target: Neuronal acetylcholine receptor subunit alpha-7 (Homo sapiens, UniProt P36544); assay: Displacement of [3H]epibatidine from alpha7 nicotinic receptor expressed in human HEK293 cells; type: cell-based
[6] = target: T1, Neuronal acetylcholine receptor; alpha3/beta4; assay: Agonist activity at alpha3beta4 nicotinic receptor expressed in human HEK cells assessed as intracellular calcium efflux by FLIPR
[7] = Agonist activity at human alpha6/4beta4 nicotinic receptor expressed in human HEK cells assessed as intracellular calcium […] by FLIPR; type: functional, cell-based, HEK293
[8] = target: T1, Neuronal acetylcholine receptor; alpha3/beta4; assay: Agonist activity at alpha3beta4 nicotinic receptor expressed in human HEK cells assessed as intracellular calcium […] by FLIPR relative to control; type: functional, cell-based; conditions: HEK293
[9] = Agonist activity at human alpha6/4beta4 nicotinic receptor expressed in human HEK cells assessed as intracellular calcium […] by FLIPR relative to control; type: functional, HEK293
[10] = (§1) Apparent permeability from apical to basolateral side of MDCK cells; type: ADME, cell-based, Canis lupus familiaris; conditions: dog
[11] = target: Voltage-gated inwardly rectifying potassium channel KCNH2 (Homo sapiens, UniProt Q12809); assay: Displacement of [3H]dofetilide from human ERG expressed in HEK293 cells; type: cell-based; conditions: hek293
[12] = system: human MDR (P-glycoprotein); assay: (§2) Efflux ratio of permeability from basolateral to apical side over apical to basolateral side of MDCK cells expressing human MDR gene; type: ADME, cell-based, Canis lupus familiaris; conditions: dog, MDCK-MDR1
[13] = system: MDCK; assay: as §1; type: ADME, cell-based, Canis lupus familiaris; conditions: dog
[14] = system: MDCK; assay: as §2; type: ADME, cell-based, Canis lupus familiaris; conditions: dog, MDCK
[15] = Homo sapiens, HEK293, read-out: EC50

T1 sequence (P30926 whole entry): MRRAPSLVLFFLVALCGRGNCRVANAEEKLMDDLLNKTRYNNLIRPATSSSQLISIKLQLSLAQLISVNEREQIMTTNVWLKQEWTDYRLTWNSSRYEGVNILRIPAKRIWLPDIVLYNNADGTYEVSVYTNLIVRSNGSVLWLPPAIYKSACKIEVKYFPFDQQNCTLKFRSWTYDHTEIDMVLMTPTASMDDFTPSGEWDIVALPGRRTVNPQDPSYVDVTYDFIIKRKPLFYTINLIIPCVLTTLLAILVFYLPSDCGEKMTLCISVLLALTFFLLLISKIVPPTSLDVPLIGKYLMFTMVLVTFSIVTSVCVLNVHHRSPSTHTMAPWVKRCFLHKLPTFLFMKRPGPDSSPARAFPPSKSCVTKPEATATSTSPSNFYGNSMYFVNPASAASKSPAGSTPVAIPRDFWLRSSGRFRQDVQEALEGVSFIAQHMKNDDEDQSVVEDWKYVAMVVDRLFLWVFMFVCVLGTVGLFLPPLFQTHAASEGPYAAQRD
T1 sequence (P32297 whole entry): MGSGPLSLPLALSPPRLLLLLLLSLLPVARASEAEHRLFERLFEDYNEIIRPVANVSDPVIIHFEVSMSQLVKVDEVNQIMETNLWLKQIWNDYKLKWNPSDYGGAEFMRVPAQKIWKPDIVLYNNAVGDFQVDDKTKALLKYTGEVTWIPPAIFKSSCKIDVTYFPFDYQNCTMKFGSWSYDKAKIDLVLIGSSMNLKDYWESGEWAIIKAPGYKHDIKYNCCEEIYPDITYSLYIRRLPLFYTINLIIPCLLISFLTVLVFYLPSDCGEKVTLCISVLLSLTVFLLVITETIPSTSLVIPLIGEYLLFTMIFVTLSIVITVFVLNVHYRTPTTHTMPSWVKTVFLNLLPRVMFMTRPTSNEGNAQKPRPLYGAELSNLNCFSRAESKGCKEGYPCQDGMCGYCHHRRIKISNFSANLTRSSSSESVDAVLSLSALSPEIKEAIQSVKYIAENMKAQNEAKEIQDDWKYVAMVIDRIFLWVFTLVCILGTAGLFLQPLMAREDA
Acetylcholine receptor; alpha1/beta1/delta/gamma, sequence (P02708 whole entry): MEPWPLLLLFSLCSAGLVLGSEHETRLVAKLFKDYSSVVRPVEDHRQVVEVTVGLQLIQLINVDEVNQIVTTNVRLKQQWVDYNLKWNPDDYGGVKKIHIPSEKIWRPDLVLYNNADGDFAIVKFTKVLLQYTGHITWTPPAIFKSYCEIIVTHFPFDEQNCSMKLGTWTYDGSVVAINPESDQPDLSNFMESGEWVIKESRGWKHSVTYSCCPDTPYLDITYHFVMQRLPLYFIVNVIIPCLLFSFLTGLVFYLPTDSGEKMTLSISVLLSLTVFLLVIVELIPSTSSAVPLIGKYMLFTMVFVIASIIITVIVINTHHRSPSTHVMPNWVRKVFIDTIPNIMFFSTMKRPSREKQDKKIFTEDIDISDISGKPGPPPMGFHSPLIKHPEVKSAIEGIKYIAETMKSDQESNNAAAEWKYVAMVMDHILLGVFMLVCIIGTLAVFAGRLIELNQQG
Acetylcholine receptor; alpha1/beta1/delta/gamma, sequence (P07510 whole entry): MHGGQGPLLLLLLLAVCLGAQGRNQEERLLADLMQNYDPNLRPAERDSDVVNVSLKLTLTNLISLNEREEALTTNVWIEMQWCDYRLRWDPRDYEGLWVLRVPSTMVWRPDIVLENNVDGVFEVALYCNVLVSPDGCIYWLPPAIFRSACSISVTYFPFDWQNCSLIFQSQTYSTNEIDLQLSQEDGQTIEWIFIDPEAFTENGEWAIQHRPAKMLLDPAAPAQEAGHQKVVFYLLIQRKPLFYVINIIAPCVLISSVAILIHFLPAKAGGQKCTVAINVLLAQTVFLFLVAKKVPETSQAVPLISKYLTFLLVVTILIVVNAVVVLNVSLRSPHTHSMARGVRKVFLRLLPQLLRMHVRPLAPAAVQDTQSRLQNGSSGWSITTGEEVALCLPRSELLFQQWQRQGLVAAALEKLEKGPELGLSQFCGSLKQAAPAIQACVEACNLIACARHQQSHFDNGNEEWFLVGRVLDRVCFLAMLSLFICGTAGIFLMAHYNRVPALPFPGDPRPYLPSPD
Acetylcholine receptor; alpha1/beta1/delta/gamma, sequence (P11230 whole entry): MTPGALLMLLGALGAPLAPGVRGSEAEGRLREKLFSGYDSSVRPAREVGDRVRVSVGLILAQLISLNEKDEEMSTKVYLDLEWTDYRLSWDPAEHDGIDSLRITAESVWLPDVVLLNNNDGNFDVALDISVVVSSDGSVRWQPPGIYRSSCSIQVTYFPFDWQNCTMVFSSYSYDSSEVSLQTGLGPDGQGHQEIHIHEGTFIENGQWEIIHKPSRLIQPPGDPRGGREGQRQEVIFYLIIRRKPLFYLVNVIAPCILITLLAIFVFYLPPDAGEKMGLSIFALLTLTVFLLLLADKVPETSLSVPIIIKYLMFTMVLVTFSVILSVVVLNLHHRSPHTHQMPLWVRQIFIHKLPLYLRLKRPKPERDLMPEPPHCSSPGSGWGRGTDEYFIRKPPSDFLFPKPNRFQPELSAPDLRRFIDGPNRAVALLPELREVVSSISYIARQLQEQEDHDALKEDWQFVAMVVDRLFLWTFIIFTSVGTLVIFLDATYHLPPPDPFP
Acetylcholine receptor; alpha1/beta1/delta/gamma, sequence (Q07001 whole entry): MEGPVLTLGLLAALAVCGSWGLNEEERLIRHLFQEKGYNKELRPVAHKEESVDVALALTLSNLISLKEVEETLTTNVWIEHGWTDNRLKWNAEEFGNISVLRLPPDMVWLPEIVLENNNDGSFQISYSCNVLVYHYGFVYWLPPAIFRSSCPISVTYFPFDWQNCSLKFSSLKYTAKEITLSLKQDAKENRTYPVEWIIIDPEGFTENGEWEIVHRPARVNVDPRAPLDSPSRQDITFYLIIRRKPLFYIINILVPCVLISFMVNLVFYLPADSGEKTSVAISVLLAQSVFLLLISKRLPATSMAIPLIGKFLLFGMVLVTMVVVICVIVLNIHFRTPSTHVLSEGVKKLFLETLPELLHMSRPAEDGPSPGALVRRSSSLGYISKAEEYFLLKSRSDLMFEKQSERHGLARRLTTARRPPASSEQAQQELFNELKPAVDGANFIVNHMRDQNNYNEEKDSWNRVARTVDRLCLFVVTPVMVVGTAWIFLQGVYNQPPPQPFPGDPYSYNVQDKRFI
Neuronal acetylcholine receptor; alpha4/beta2, sequence (P17787 whole entry): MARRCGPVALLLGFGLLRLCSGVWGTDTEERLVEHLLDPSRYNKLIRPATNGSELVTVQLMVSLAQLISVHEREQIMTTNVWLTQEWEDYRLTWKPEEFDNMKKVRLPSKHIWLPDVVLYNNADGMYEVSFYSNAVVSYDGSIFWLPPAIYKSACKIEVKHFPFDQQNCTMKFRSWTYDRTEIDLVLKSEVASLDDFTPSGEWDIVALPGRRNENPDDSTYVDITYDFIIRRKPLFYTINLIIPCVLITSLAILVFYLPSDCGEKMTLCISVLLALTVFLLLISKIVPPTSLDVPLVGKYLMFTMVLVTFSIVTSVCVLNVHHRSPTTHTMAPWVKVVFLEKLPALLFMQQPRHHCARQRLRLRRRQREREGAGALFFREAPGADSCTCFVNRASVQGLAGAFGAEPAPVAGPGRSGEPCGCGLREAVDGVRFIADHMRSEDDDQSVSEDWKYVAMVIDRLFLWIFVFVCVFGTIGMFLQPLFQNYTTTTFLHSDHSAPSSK
Neuronal acetylcholine receptor; alpha4/beta2, sequence (P43681 whole entry): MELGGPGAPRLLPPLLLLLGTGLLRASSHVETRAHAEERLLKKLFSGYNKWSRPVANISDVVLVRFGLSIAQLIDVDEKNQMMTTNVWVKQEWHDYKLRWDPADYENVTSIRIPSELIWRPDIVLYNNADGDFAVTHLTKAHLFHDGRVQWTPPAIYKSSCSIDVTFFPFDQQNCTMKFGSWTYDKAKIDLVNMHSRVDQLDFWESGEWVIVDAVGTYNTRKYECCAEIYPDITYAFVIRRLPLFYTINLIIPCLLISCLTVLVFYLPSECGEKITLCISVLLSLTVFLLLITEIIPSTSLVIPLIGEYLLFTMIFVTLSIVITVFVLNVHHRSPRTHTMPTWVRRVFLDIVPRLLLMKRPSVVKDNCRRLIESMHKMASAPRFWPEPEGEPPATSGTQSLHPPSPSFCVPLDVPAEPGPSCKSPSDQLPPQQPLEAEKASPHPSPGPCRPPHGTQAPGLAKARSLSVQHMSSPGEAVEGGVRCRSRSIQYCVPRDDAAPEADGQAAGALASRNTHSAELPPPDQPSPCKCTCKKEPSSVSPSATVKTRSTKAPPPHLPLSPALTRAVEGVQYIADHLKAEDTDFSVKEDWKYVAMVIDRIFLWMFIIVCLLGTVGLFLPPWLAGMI
Neuronal acetylcholine receptor subunit alpha-7, sequence (P36544 whole entry): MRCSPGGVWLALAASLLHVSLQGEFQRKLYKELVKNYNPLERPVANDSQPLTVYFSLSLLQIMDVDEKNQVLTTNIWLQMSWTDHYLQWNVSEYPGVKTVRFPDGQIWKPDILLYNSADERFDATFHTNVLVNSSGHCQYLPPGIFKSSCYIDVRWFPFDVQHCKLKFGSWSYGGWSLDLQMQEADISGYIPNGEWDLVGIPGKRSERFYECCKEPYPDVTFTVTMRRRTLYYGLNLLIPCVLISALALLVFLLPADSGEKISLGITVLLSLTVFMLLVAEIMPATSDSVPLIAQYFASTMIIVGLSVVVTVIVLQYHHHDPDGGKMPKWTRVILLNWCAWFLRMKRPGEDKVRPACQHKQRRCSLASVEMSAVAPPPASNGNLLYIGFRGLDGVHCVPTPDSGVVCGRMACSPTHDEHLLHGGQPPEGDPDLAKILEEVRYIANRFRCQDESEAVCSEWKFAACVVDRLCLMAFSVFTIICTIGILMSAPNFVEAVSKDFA

SMILES	Ki ([1]; read-out: Ki) [nM]	Ki [2] [nM]	Ki [3] [nM]	Ki [4] [nM]	Ki [5] [nM]	EC50 [6] [nM]	EC50 [7, 15] [nM]	Efficacy [8] [%]	Efficacy [9] [%]	Papp A→B [10] [×10⁻⁶ cm/s]	Ki [11]	efflux ratio [12]	Papp [13] [×10⁻⁶ cm/s]	Ratio [14]	Ki ([1]; hek293)	EC50 ([7]; hek293)
Cl.Nc1cncc(-c2ccccc2O[C@H]2C[C@@H]3CNC[C@H]2C3)c1 (racemic)	> 575	> 15000	1.48	5.83	> 15000	33.9	64.4	80.5	107	–	–	–	–	–	–	–
CC(C)S(=O)(=O)Nc1cncc(-c2ccccc2O[C@H]2C[C@@H]3CNC[C@H]2C3)c1.Cl (racemic)	745	4240	0.126	0.202	14600	0.16	98.5	57	160	0.56	Not Active	1.49	–	–	–	–
CN1CCC[C@H]1c1cccnc1 [NICOTINE]	–	1480	–	168	–	–	–	–	–	–	–	–	–	–	–	–
Oc1cncc(-c2ccccc2O[C@H]2C[C@@H]3CNC[C@H]2C3)c1	–	–	–	–	–	–	–	118	–	–	–	–	–	–	–	–
CS(=O)(=O)Nc1cncc(-c2ccccc2O[C@H]2C[C@@H]3CNC[C@H]2C3)c1.Cl (racemic)	> 424	> 13500	0.243	0.241	4750	2.99	3.15	–	230	–	–	–	–	–	–	–
CC(=O)Nc1cncc(-c2ccccc2O[C@H]2C[C@@H]3CNC[C@H]2C3)c1.Cl (racemic)	> 615	530	9.53	17.1	> 15000	252	35.4	100	51	–	–	–	–	–	–	–
Cl.c1cncc(-c2ccccc2O[C@H]2C[C@@H]3CNC[C@H]2C3)c1	> 832	1020	1.21	2.15	3300	< 100	–	–	35	–	Not Active	–	28.7	1.65	–	–
NC(=O)c1cncc(-c2ccccc2O[C@@H]2C[C@H]3CNC[C@@H]2C3)c1 (stereo in doubt)	–	–	496	1130	–	–	–	–	–	–	–	–	–	–	Not Active	–
COc1ccncc1-c1ccccc1O[C@H]1C[C@@H]2CNC[C@H]1C2.Cl (racemic)	477	–	0.882	1.77	–	< 100	> 30000	49	23	–	–	–	–	–	–	–
c1cncc(-c2ccccc2O[C@@H]2C[C@H]3CNC[C@@H]2C3)c1	> 614	–	16.9	78.5	–	–	126	46	–	–	–	–	–	–	–	–
Cl.NC(=O)c1cncc(-c2ccccc2O[C@H]2C[C@@H]3CNC[C@H]2C3)c1 (stereo in doubt)	> 963	> 15000	3.79	12.5	> 15000	36.8	–	102	59.5	–	–	–	–	–	–	Not Active
c1cnc2cc3c(cc2n1)[C@@H]1CNC[C@H]3C1 [VARENICLINE]	–	8200	–	89	–	–	–	–	–	–	–	–	–	–	–	–
CS(=O)(=O)Nc1ccncc1-c1ccccc1O[C@H]1C[C@@H]2CNC[C@H]1C2.Cl (racemic)	250	> 15000	0.382	5.21	7590	112	4.3	117	48	–	–	–	–	–	–	–
CCS(=O)(=O)Nc1cncc(-c2ccccc2O[C@H]2C[C@@H]3CNC[C@H]2C3)c1.Cl (racemic)	> 604	> 15000	0.149	0.313	9870	1.09	0.37	108	182	0.44	Not Active	0.93	–	–	–	–
c1cncc(-c2ccccc2O[C@H]2C[C@@H]3CNC[C@H]2C3)c1 (racemic)	–	–	–	–	–	–	–	45	–	–	–	–	–	–	–	–
